Among the data in patent EP3789378A1, “PIPERIDINES OR PIPERIDONES SUBSTITUTED WITH UREA AND HETEROARYL” (Grünenthal GmbH, priority 2019, dated 2021) are EC50 and activation values, retold here.

The structures appear in SMILES notation.

One experiment addresses T1, h FPR2 (Homo sapiens, UniProt P25090).
T1 construct: expressed in transfected cells
T1 sequence (P25090 1-351): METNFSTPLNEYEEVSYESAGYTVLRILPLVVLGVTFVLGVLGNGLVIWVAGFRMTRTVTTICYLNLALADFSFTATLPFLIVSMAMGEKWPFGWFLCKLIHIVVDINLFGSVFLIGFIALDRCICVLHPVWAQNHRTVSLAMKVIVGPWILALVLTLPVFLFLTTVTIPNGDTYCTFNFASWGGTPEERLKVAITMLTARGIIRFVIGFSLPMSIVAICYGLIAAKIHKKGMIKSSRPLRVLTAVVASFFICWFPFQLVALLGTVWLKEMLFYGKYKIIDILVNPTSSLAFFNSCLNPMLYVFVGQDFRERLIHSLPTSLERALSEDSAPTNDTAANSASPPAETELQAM
In words: Agonistic activity in hFPR2-Aq-CHO cells (FLIPR Calcium 5 fluorescence assay). It counts as cell-based. To be noted: 11 point half log dilution, final assay concentration from 10µM. The method, boiled down: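 hFPR2-Aq-CHO cells were loaded with Calcium 5 dye for 30 min at 37 °C and equilibrated 10 min at room temperature. Compound (11 points, 10 µM to 100 pM final) was added in HBSS/HEPES/probenecid buffer pH 7.4. Fluorescence rise over basal across 5 min, relative to no-compound wells, gave EC50.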
With `Cc1cc(NC(=O)N[C@@H]2CCN(Cc3cc(C)on3)C[C@H]2c2ccc(Cl)s2)sn1` (single isomer, unassigned) [Ex-49, trans-1-[3-(5-chlorothiophen-2-yl)-1-[(5-methyl-1,2-oxazol-3-yl)methyl]piperidin-4-yl]-3-(3-methyl-1,2-thiazol-5-yl)urea], the EC50 – broadly, the concentration giving half of the maximal effect – is 0.3 nM.

For `COc1ccc([C@@H]2CN(CC3CCC(O)CC3)CC[C@H]2NC(=O)Nc2ccc(Cl)cc2)nc1` (relative stereo) [Ex-114, trans-1-(4-chloro-phenyl)-3-[1'-(4-hydroxy-cyclohexylmethyl)-5-methoxy-1',2',3',4',5',6'-hexahydro-[2,3']bipyridinyl-4'-yl]-urea], the EC50 is 0.6 nM.

As to `Cc1cc(NC(=O)N[C@@H]2CCN(c3ccc(F)cc3)C[C@H]2c2ccc(Cl)cn2)sn1` (relative stereo) [Ex-26, trans-1-[5-chloro-1'-(4-fluoro-phenyl)-1',2',3',4',5',6'-hexahydro-[2,3']bipyridinyl-4'-yl]-3-(3-methyl-isothiazol-5-yl)-urea], the EC50 was found to be 1 nM.

With `COc1ccc([C@@H]2CN(Cc3cnc(C)nc3)CC[C@H]2NC(=O)Nc2ccc(Cl)cc2)nc1` (relative stereo) [Ex-61, trans-1-(4-chlorophenyl)-3-[3-(5-methoxy-2-pyridyl)-1-[(2-methylpyrimidin-5-yl)methyl]-4-piperidyl]urea], the EC50 came out at 0.6 nM.

Regarding `COCCN1CC[C@@H](NC(=O)Nc2ccc(Cl)cc2)[C@H](c2ncc(OC)cc2F)C1` (relative stereo) [Ex-198, trans-1-(4-chloro-phenyl)-3-[3-fluoro-5-methoxy-1'-(2-methoxy-ethyl)-1',2',3',4',5',6'-hexahydro-[2,3']bipyridinyl-4'-yl]-urea], the EC50 was 0.4 nM.

On to `Cc1cc(NC(=O)N[C@@H]2CCN(Cc3cc(C)on3)C[C@H]2c2ccc(Cl)s2)sn1` (single isomer, unassigned) [Ex-48, trans-1-[3-(5-chlorothiophen-2-yl)-1-[(5-methyl-1,2-oxazol-3-yl)methyl]piperidin-4-yl]-3-(3-methyl-1,2-thiazol-5-yl)urea], for which the EC50 was determined as 72 nM.

On to `O=C(Nc1ccc(Cl)cc1)N[C@@H]1CCN(C(=O)C2CCNCC2)C[C@H]1c1ccc(Cl)s1` (relative stereo) [Ex-130, trans-1-(4-Chlorophenyl)-3-[3-(5-chloro-thiophen-2-yl)-1-(piperidine-4-carbonyl)-piperidin-4-yl]-urea], for which the EC50 came out at 4 nM.

As for `COc1ccc([C@@H]2CN(Cc3cc(C(F)(F)F)on3)CC[C@H]2NC(=O)Nc2ccc(Cl)cc2)nc1` (single isomer, unassigned) [Ex-37, trans-1-(4-chlorophenyl)-3-[3-(5-methoxypyridin-2-yl)-1-{[5-(trifluoromethyl)-1,2-oxazol-3-yl]methyl}piperidin-4-yl]urea], the EC50 amounted to 0.13 nM.

For `COc1ccc([C@@H]2CN(C(=O)C3CCN(C)CC3)CC[C@H]2NC(=O)Nc2ccc(Cl)cc2)nc1` (single isomer, unassigned) [Ex-188, trans-1-(4-chlorophenyl)-3-[3-(5-methoxypyridin-2-yl)-1-(1-methylpiperidine-4-carbonyl)piperidin-4-yl]urea], the EC50 turned out to be 29 nM.

On to `COc1ccc([C@@H]2CN(c3ccncn3)CC[C@H]2NC(=O)Nc2ccc(Cl)cc2)cn1` (relative stereo) [Ex-1, trans-1-(4-chloro-phenyl)-3-(6'-methoxy-1-pyrimidin-4-yl-1,2,3,4,5,6-hexahydro-[3,3']bipyridinyl-4-yl)-urea], for which the EC50 came to 6 nM.

`O=C(Nc1ccc(Cl)cc1)N[C@@H]1CCN(Cc2ncccn2)C[C@H]1c1ccc(Cl)s1` (single isomer, unassigned) [Ex-46, trans-1-(4-chlorophenyl)-3-[3-(5-chlorothiophen-2-yl)-1-(pyrimidin-2-ylmethyl)piperidin-4-yl]urea]: the EC50 turned out to be 0.4 nM.

As to `COc1cnc([C@@H]2CN(CC(C)(C)O)CC[C@H]2NC(=O)Nc2ccc(Cl)cc2)c(F)c1` (relative stereo) [Ex-208, trans-1-(4-chloro-phenyl)-3-[3-fluoro-1'-(2-hydroxy-2-methyl-propyl)-5-methoxy-1',2',3',4',5',6'-hexahydro-[2,3']bipyridinyl-4'-yl]-urea], the EC50 stood at 0.7 nM.

In the case of `Cc1ccc(CN2CC[C@@H](NC(=O)Nc3ccc(Cl)cc3)[C@H](c3ccc(Cl)s3)C2)cn1` (relative stereo) [Ex-87, trans-1-(4-chlorophenyl)-3-[3-(5-chlorothiophen-2-yl)-1-[(6-methylpyridin-3-yl)methyl]piperidin-4-yl]urea], the EC50 turned out to be 1 nM.

For `COc1ccc([C@@H]2CN(c3ccc(F)cc3)CC[C@H]2NC(=O)Nc2cc(C)ns2)cn1` (relative stereo) [Ex-3, trans-1-[1-(4-fluoro-phenyl)-6'-methoxy-1,2,3,4,5,6-hexahydro-[3,3']bipyridinyl-4-yl]-3-(3-methyl-isothiazol-5-yl)-urea], the EC50 turned out to be 10 nM.

Take `COc1ccc([C@@H]2CN(C)CC[C@H]2NC(=O)Nc2ccc(Cl)cc2)nc1` (relative stereo) [Ex-126, trans-1-(4-Chlorophenyl)-3-[3-(5-methoxy-pyridin-2-yl)-1-methyl-piperidin-4-yl]-urea]: the EC50 was found to be 1.2 nM.

For `COc1cnc([C@@H]2CN(CCN(C)C)CC[C@H]2NC(=O)Nc2ccc(Cl)cc2)c(F)c1` (relative stereo) [Ex-213, trans-1-(4-chloro-phenyl)-3-[1'-(2-dimethylamino-ethyl)-3-fluoro-5-methoxy-1',2',3',4',5',6'-hexahydro-[2,3']bipyridinyl-4'-yl]-urea], the EC50 was determined as 1.05 nM.

As for `COc1ccc([C@@H]2CN(C(=O)C3COC3)CC[C@H]2NC(=O)Nc2ccc(Cl)cc2)nc1` (relative stereo) [Ex-92, trans-1-(4-chloro-phenyl)-3-[5-methoxy-1'-(oxetane-3-carbonyl)-1',2',3',4',5',6'-hexahydro-[2,3']bipyridinyl-4'-yl]-urea], the EC50 turned out to be 4 nM.

Consider `Cc1cc(NC(=O)N[C@@H]2CCN(c3cc(C(F)(F)F)ncn3)C[C@H]2c2ccc(Cl)cn2)sn1` (relative stereo) [Ex-27, trans-1-[5-chloro-1'-(6-trifluoromethyl-pyrimidin-4-yl)-1',2',3',4',5',6'-hexahydro-[2,3']bipyridinyl-4'-yl]-3-(3-methyl-isothiazol-5-yl)-urea], for which the EC50 is 6 nM.

In the case of `CS(=O)(=O)n1ccc(CN2CC[C@@H](NC(=O)Nc3ccccc3)[C@H](c3ccc(Cl)s3)C2)n1` (single isomer, unassigned) [Ex-56, trans-1-(-3-(5-chlorothiophen-2-yl)-1-((1-(methylsulfonyl)-1H-pyrazol-3-yl)methyl)piperidin-4-yl)-3-phenylurea], the EC50 amounted to 0.9 nM.

With `Cc1cc(NC(=O)N[C@@H]2CCN(c3ccnc(C)n3)C[C@H]2c2ccc(Cl)cn2)sn1` (relative stereo) [Ex-21, trans-1-[5-chloro-1'-(2-methyl-pyrimidin-4-yl)-1',2',3',4',5',6'-hexahydro-[2,3']bipyridinyl-4'-yl]-3-(3-methyl-isothiazol-5-yl)-urea], the EC50 came out at 7 nM.

Regarding `COc1ccc([C@@H]2CN(CC3(O)COC3)CC[C@H]2NC(=O)Nc2cc(C)ns2)nc1` (relative stereo) [Ex-217, trans-1-[1'-(3-hydroxy-oxetan-3-ylmethyl)-5-methoxy-1',2',3',4',5',6'-hexahydro-[2,3']bipyridinyl-4'-yl]-3-(3-methyl-isothiazol-5-yl)-urea], the EC50 is 6 nM.

Turning to `COc1ccc([C@@H]2CN(C3CCS(=O)(=O)CC3)CC[C@H]2NC(=O)Nc2ccc(Cl)cc2)nc1` (relative stereo) [Ex-110, trans-1-(4-chlorophenyl)-3-(1-(1,1-dioxidotetrahydro-2H-thiopyran-4-yl)-3-(5-methoxypyridin-2-yl)piperidin-4-yl)urea], the EC50 was 49 nM.

`COc1ccc([C@@H]2CN(CCS(C)(=O)=O)CC[C@H]2NC(=O)Nc2ccc(Cl)cc2)nc1` (relative stereo) [Ex-93, trans-1-(4-chloro-phenyl)-3-[1'-(2-methanesulfonyl-ethyl)-5-methoxy-1',2',3',4',5',6'-hexahydro-[2,3']bipyridinyl-4'-yl]-urea]: the EC50 came to 3 nM.

On to `COc1ccc([C@@H]2CN(Cc3cc(C)on3)CC[C@H]2NC(=O)Nc2ccc(Cl)cc2)nc1` (single isomer, unassigned) [Ex-30, trans-1-(4-chlorophenyl)-3-[3-(5-methoxypyridin-2-yl)-1-[(5-methyl-1,2-oxazol-3-yl)methyl]piperidin-4-yl]urea], for which the EC50 worked out at 0.09 nM.

Still in this experiment, the particulars now being: agonistic response at 0.1µM.
As for `Cc1cc(NC(=O)N[C@@H]2CCN(Cc3ncccn3)C[C@H]2c2ccc(Cl)s2)sn1` (relative stereo) [Ex-63, trans-1-[3-(5-chlorothiophen-2-yl)-1-(pyrimidin-2-ylmethyl)piperidin-4-yl]-3-(3-methyl-1,2-thiazol-5-yl)urea], the activation at 0.1 µM was found to be 44%.

Turning to `COc1ccc([C@@H]2CN(Cc3ccn(C)n3)CC[C@H]2NC(=O)Nc2ccc(Cl)cc2)nc1` (relative stereo) [Ex-40, trans-1-(4-chlorophenyl)-3-[3-(5-methoxypyridin-2-yl)-1-[(1-methyl-1H-pyrazol-3-yl)methyl]piperidin-4-yl]urea], the activation at 0.1 µM came out at 10%.

Turning to `COc1ccc([C@@H]2CN(C3CCS(=O)(=O)CC3)CC[C@H]2NC(=O)Nc2cc(C)ns2)nc1` (relative stereo) [Ex-149, trans-1-[1-(1,1-Dioxo-thian-4-yl)-3-(5-methoxy-pyridin-2-yl)-piperidin-4-yl]-3-(3-methyl-isothiazol-5-yl)-urea], the activation at 0.1 µM was 25%.
